Data published in patent US8735588B2, “Nematocidal sulfonamides” (E I Du Pont De Nemours and Company, priority 2009, dated 2014).

melting point [°C]	Compound
> 250	Cc1cc(S(=O)(=O)[N-]C(=O)c2cn3cc(C(F)(F)F)cc(Cl)c3n2)c(C)cc1C#N.[Na+] [Compound 477]
244 to 245	Cc1cc(S(=O)(=O)NC(=O)c2cn3cc(C(F)(F)F)cc(Cl)c3n2)c(C)cc1C#N [Compound 19, 8-chloro-N-[(4-cyano-2,5-dimethylphenyl)sulfonyl]-6-(trifluoromethyl)imidazo[1,2-a]pyridine-2-carboxamide]
> 250	CCc1ccc(Cl)c(S(=O)(=O)NC(=O)c2cn3cc(C(F)(F)F)cc(Cl)c3n2)c1 [Compound 356, 8-chloro-N-[(2-chloro-5-ethylphenyl)sulfonyl]-6-(trifluoromethyl)imidazo[1,2-a]pyridine-2-carboxamide]
251 to 252	CCn1cc(S(=O)(=O)NC(=O)c2cn3cc(C(F)(F)F)cc(Cl)c3n2)c(C)n1 [Compound 357, 8-chloro-N-[(1-ethyl-3-methyl-1H-pyrazol-4-yl)sulfonyl]-6-(trifluoromethyl)-imidazo[1,2-a]pyridine-2-carboxamide]
> 250	COc1ccc(Cl)c(S(=O)(=O)[N-]C(=O)c2cn3cc(C(F)(F)F)cc(Cl)c3n2)c1.[Na+] [Compound 478]
185 to 186	Cc1cc(S(=O)(=O)NC(=O)c2cn3cc(C(F)(F)F)cc(Cl)c3n2)c(C)cc1C#N [Compound 479]
